B1: vMIP-II: KSHV-encoded human chemokine homologue (protein, UniProt Q98157 21-94, looked up)
Viral macrophage inflammatory …: GDTLGASWHRPDKCCLGYQKRPLPQVLLSSWYPTSQLCSKPGVIFLTKRGRQVCADKSKDWVKKLMQQLPVTAR
B2: MIP-1α: human chemokine (protein, UniProt P10147 24-92, looked up)
C-C motif chemokine 3: SLAADTPTACCFSYTSRQIPQNFIADYFETSSQCSKPGVIFLTKRSRQVCADPSEEWVQKYVSDLELSA

Tests used:
[1] = tested on: T-cell subpopulations moving toward or away from SDF-1α; experiment: Inhibitor pretreatment of T-cells in SDF-1α transwell transmigration assay; format: cell-based, human; conditions: cells pretreated with inhibitor; for effect on chemotaxis to SDF-1α: peak chemotaxis at 100 ng/ml SDF-1α; for effect on fugetaxis from SDF-1α: peak fugetaxis at 1 or 10 μg/ml SDF-1α
Method: Three chemotaxis assays were used in this study. First, quantitative chemotaxis transmigration assays were performed using a transwell system (Corning Inc., NY) (6.5 mm diameter, 5 μm pore size, polycarbonate membrane) as previously described^13. Purified T-cell and thymocyte subpopulations (5×10^4 cells) were added to the upper chamber of each well in a total volume of 150 μl of IMDM alone. […] Cells were pretreated with pertussis toxin (PTX) 100 ng/ml for 1 hour, genistein (1 μg/ml for 20 minutes), herbimycin (1 μM for 20 minutes) or wortmannin (1 μM for 20 minutes) (Sigma Chemical Company, St Louis, Mo.) in a tissue culture incubator at 37° C. and 5% CO2 prior to their addition to the upper chambers of the transwells in selected experiments.
Transwells prepared in this way were incubated for 3 hours at 37° C., 5% CO2 incubator. Cells were harvested from the lower chamber after 3 hours and cell counts, immunophenotype and CXCR-4 chemokine receptor expression determined.
(§1) Cells were pretreated with anti-CXCR-4 (Pharmingen, San Diego, Calif.) at 20 μg/ml for 30 minutes at room temperature, pertussis toxin (PTX) (100 ng/ml for 1 hour at 37° C.), genistein (1 μg/ml for 20 minutes at 37° C.), herbimycin ([…] for 20 minutes 37° C.), wortmannin (1 μM for 20 minutes at 37° C.), 8-Br-cAMP (100 μM for 15 minutes at room temperature) or 8-Br-cGMP (100 μM for 15 minutes at room temperature) (Sigma Chemical Company, St Louis, Mo.) prior to their addition to the upper chambers of the transwells in selected experiments. Transwells prepared in this way were incubated for 3 hours at 37° C./5% C02 incubator. Cells were harvested from the lower chamber after 3 hours and cell counts performed using a hemocytometer.

[2] = tested on: CD8+CD45RA+ T-cells; experiment: Transwell transmigration assay with recombinant HIV-1IIIB gp120 and inhibitors; format: cell-based, human; conditions: cells pretreated with inhibitor
Method: Purified T-cell and thymocyte subpopulations (5×10^4 cells) were added to the upper chamber of each well in a total volume of 150 μl of IMDM alone.
as §1

[3] = tested on: Jurkat T-cells; experiment: Transwell transmigration of Jurkat T-cells to HepG2CM fractions, with inhibitors; format: cell-based, human; conditions: Jurkat cells pretreated, 100 μM for 15 minutes
Method: The HepG2 cell line (derived from a human hepatocarcinoma-ATCC no:HB-8065, ATCC, Manassas, Va.) was grown to confluency in MEM+10% heat inactivated fetal calf serum+penicillin/streptomycin+L-glutamine. Confluent HepG2 cells were then transferred into serum free medium for 48 hours and the serum free conditioned medium (HepG2CM) was harvested from these cultures. HepG2CM was filtered through a 0.4 μm filter prior to use in transmigration assays or in the Fugetaxin separation system detailed below.
200 ml of HepG2CM were loaded onto a 5-ml HiTrap heparin column (Pharmacia) equilibrated with 10 mM Na phosphate, pH 7. The column was eluted with step increasing concentration of NaCl. […] A cation exchange column, HiTrap Sp Sepharose (Pharmacia), was used as a second step of purification. The active fraction from the Heparin column was dialysized against 50 mM MES, pH6.4 and loaded onto a 1-ml HiTrap Sp column equilibrated with 50 mM MES, pH6.4. The column was then eluted with a linear gradient of NaCl concentration. • 3. […] The active fraction eluted from the HiTrap Sp column in the previous step was then dialysized with 20 mM Tris, pH8.0 and further fractionated using a MonoQ HR5/5 column (Pharmacia). The column was then eluted with a linear gradient of NaCl concentration.
We examined the biology of the fugetactic activity of Fraction 18 with in vitro and in vivo transmigration assay systems. […]

[4] = tested on: human T-cell subpopulations; experiment: Transmigration of human T-cells to KSHV-infected cell supernatants and chemokines; format: cell-based
Text: We examined the chemotactic and fugetactic responses of human T-cell subpopulations and KSHV specific CTL clones to the KSHV proteins vMIP-I and vMIP-II and serum free supernatants from two cell-lines well known in the art that are chronically infected by KSHV and derived from human tumors, lines BCBL-1 and VG-1. BCBL-1 is a B cell line derived from a body cavity-based B lymphoma that is latently infected with HHV-8/KSHV; no EBV DNA is present in this line (Renne, R., W. et al., Nat. Med., 1996, 2:342-346).
FIG. 7: Transmigration of human T-cells to supernatants derived from cell lines which are chronically infected with KSHV (FIG. 7A: BCBL-1, and FIG. 7B:VG-1).
Fugetactic (black bars) and chemotactic (striped bars) migratory responses are shown.

Molecule | effect on chemotaxis to SDF-1α [1] | effect on fugetaxis from SDF-1α [1] | inhibition of fugetaxis induced by Fraction 18 [3] | also measured
Nc1ncnc2c1nc(Br)n2[C@@H]1O[C@@H]2COP(=O)(O)O[C@H]2[C@H]1O [8-Br-cAMP] | not chemotaxis | inhibited fugetaxis | 95% | effect on movement away from HIV-1IIIB gp120 [2]: differentially sensitive to inhibition
Nc1nc2c(nc(Br)n2[C@@H]2O[C@@H]3COP(=O)(O)O[C@H]3[C@H]2O)c(=O)[nH]1 [8-Br-cGMP] |  |  | did not significantly inhibit fugetaxis | 
CO[C@H]1[C@@H](OC)C[C@H](C)[C@@H](OC)C2=CC(=O)C=C(NC(=O)/C(C)=C/C=C\[C@H](OC)[C@@H](OC(N)=O)/C(C)=C/[C@@H]1C)C2=O [herbimycin] | inhibited chemotaxis | minimal effect on fugetaxis |  | 
O=c1c(-c2ccc(O)cc2)coc2cc(O)cc(O)c12 [genistein] | inhibited chemotaxis | minimal effect on fugetaxis |  | 
B1 |  |  |  | fugetactic response of T-cells ([4]; 100 ng/ml): not
B2 |  |  |  | chemotactic response of T-cell subsets ([4]; 10 ng/ml): clear chemotactic response
